Reference: paper PMC11871066, “Structure-based discovery of hydrocarbon-stapled paxillin peptides that block FAK scaffolding in cancer” (Nature Communications, 2025)

Legend:
Experiment in all cases: Eurofins KINOMEscan profiling, 97 kinases
[1] = biological target: 97 kinases (kinase named in endpoint) (Homo sapiens, UniProt O00750); settings: read-out: % Ctrl, PIK3C2B
Experimental: (§1) This experiment was performed by Eurofins KINOMEscan™ Profiling Service. […] The lysates were centrifuged and filtered, the remaining kinases were produced in HEK-293 cells and subsequently tagged with DNA for qPCR detection. […] The liganded beads were blocked with excess biotin and washed with blocking buffer (SeaBlock (Pierce), 1% BSA, 0.05% Tween-20, 1 mM DTT). […] Test compounds were prepared as 100x stocks in 100% DMSO and directly diluted into the assay. All reactions were performed in polypropylene 384-well plates in a final volume of 0.02 ml. […] The kinase concentration in the eluates was measured by qPCR.
(§2) (negative control signal - positive control signal)] x 100. ( b) AccompanyingSelectivity Scores or S -scores
(§3) which are quantitative measures of compound selectivity. They are calculated by dividing the number of
(§4) kinases that compounds bind to by the total number of distinct kinases tested, excluding mutant variants.
(§5) S(35)= ( num ber of non -mutant kinases with %Ctrl <35)/(number of non- mutant kinases tested)], S(10)=
(§6) non- mutant kinases with %Ctrl <1)/(number of non- mutant kinases tested)].

[2] = biological target: 97 kinases (kinase named in endpoint) (Homo sapiens, UniProt O15075); settings: read-out: % Ctrl, DCAMKL1
Chain of 97 kinases (kinase named in endpoint) (Homo sapiens, UniProt O15075) (O15075 whole entry): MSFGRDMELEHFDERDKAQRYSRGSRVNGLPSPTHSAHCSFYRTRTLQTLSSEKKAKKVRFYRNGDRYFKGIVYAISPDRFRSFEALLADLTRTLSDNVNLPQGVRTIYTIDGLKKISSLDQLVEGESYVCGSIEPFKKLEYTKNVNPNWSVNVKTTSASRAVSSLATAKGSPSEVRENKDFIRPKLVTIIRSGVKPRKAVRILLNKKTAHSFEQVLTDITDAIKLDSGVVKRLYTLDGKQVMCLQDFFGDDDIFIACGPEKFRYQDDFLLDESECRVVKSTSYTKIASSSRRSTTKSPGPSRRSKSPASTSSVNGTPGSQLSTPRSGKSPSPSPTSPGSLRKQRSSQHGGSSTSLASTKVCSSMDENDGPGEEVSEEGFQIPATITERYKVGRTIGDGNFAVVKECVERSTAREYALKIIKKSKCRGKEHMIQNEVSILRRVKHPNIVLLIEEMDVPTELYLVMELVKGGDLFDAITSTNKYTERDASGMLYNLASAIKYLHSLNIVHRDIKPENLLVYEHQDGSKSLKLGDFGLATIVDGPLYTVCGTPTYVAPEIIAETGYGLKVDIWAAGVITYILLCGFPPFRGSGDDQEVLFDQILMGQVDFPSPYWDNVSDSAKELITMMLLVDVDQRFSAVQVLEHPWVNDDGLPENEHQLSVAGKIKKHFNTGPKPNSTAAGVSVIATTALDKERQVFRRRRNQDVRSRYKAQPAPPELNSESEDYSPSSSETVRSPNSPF
Experimental: as §1, §2, §3, §4, §5, §6

[3] = biological target: 97 kinases (kinase named in endpoint) (Homo sapiens, UniProt P04049); settings: read-out: % Ctrl, RAF1
Chain of 97 kinases (kinase named in endpoint) (Homo sapiens, UniProt P04049) (P04049 whole entry): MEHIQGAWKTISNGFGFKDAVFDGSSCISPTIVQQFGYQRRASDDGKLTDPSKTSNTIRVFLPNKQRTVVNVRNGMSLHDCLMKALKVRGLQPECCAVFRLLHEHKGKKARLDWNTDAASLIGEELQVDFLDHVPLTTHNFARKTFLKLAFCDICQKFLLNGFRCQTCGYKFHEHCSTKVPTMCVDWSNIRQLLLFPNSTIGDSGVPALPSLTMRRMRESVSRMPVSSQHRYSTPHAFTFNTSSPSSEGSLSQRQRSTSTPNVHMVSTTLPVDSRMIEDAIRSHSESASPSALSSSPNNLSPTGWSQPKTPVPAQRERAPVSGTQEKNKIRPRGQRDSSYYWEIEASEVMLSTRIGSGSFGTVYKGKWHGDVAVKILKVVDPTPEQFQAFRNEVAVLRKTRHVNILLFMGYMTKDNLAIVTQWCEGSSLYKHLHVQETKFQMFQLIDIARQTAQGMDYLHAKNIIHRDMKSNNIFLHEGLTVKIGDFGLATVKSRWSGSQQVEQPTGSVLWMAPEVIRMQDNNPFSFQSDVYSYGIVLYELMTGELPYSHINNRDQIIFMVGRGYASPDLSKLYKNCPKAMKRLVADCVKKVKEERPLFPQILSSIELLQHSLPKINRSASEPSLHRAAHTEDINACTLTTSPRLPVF
Experimental: as §1, §2, §3, §4, §5, §6

[4] = biological target: 97 kinases (kinase named in endpoint) (Homo sapiens, UniProt P04626); settings: read-out: % Ctrl, ERBB2
Experimental: as §1, §2, §3, §4, §5, §6

[5] = biological target: 97 kinases (kinase named in endpoint) (Homo sapiens, UniProt P06213); settings: read-out: % Ctrl, INSR
Experimental: as §1, §2, §3, §4, §5, §6

[6] = biological target: 97 kinases (kinase named in endpoint) (Homo sapiens, UniProt P08581); settings: read-out: % Ctrl, MET
Chain of 97 kinases (kinase named in endpoint) (Homo sapiens, UniProt P08581) (P08581 25-1390): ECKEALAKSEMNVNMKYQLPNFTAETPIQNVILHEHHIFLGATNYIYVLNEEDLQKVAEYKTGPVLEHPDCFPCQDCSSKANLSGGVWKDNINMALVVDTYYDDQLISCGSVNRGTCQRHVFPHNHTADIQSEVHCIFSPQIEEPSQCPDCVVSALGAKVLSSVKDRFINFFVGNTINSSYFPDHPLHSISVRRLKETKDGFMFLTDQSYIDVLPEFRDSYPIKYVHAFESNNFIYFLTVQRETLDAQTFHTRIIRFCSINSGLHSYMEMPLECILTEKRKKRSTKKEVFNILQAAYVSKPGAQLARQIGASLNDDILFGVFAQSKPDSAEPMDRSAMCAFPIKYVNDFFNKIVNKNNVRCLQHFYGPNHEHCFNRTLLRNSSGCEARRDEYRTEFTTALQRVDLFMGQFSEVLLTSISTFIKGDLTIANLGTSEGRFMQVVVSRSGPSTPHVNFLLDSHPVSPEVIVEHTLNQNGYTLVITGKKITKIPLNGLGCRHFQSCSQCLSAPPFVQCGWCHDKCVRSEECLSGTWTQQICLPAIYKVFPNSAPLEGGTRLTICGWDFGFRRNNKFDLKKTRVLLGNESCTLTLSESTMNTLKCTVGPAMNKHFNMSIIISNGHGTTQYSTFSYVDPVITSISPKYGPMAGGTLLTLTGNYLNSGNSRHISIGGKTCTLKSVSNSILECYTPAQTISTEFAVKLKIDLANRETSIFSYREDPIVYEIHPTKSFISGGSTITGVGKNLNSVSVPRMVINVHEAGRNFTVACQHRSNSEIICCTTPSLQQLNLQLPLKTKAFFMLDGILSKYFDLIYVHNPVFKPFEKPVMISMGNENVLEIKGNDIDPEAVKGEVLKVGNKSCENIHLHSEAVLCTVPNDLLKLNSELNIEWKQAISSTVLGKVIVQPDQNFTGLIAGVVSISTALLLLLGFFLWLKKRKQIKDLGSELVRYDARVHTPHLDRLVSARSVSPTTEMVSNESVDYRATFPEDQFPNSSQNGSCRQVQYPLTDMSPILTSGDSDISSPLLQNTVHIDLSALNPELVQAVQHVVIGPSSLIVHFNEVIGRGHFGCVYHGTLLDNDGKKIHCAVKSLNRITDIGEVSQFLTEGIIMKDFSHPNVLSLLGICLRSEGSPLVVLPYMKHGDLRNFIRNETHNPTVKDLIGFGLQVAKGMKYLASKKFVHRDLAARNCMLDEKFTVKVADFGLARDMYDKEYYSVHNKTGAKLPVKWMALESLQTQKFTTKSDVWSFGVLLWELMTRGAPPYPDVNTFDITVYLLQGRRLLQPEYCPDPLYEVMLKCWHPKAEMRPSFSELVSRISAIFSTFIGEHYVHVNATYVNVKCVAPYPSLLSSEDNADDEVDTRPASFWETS
Experimental: as §1, §2, §3, §4, §5, §6

[7] = biological target: 97 kinases (kinase named in endpoint) (Homo sapiens, UniProt P16234); settings: read-out: % Ctrl, PDGFRA
Experimental: as §1, §2, §3, §4, §5, §6

[8] = biological target: 97 kinases (kinase named in endpoint) (Homo sapiens, UniProt P30530); settings: read-out: % Ctrl, AXL
Experimental: as §1, §2, §3, §4, §5, §6

[9] = biological target: 97 kinases (kinase named in endpoint) (Homo sapiens, UniProt P35968); settings: read-out: % Ctrl, VEGFR2
Experimental: as §1, §2, §3, §4, §5, §6

[10] = biological target: 97 kinases (kinase named in endpoint) (Homo sapiens, UniProt P45984); settings: read-out: % Ctrl, JNK2
Chain of 97 kinases (kinase named in endpoint) (Homo sapiens, UniProt P45984) (P45984 whole entry): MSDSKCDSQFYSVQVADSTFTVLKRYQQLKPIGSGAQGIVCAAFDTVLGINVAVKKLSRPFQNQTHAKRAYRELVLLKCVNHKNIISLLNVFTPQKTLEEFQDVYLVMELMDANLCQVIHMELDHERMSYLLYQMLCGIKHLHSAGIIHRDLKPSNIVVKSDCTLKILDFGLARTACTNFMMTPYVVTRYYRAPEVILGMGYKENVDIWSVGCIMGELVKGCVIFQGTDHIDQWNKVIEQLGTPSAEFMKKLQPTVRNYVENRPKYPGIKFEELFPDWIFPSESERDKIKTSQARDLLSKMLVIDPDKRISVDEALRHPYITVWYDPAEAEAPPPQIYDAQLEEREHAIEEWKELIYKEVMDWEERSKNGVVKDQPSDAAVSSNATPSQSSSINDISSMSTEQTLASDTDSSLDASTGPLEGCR
Experimental: as §1, §2, §3, §4, §5, §6

[11] = biological target: 97 kinases (kinase named in endpoint) (Homo sapiens, UniProt P49137); settings: read-out: % Ctrl, MAPKAPK2
Chain of 97 kinases (kinase named in endpoint) (Homo sapiens, UniProt P49137) (P49137 whole entry): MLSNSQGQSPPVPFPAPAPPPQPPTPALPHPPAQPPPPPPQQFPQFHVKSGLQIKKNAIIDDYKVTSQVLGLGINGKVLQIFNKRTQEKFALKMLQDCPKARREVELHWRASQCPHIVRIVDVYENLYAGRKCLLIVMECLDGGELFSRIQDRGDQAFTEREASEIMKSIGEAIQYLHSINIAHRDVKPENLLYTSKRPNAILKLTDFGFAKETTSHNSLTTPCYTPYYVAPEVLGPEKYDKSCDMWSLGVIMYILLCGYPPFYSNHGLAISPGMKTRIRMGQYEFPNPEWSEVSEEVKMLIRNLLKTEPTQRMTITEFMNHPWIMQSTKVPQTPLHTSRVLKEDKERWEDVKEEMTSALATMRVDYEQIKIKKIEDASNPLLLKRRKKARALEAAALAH
Experimental: as §1, §2, §3, §4, §5, §6

[12] = biological target: 97 kinases (kinase named in endpoint) (Homo sapiens, UniProt P50750); settings: read-out: % Ctrl, CDK9
Experimental: as §1, §2, §3, §4, §5, §6

[13] = biological target: 97 kinases (kinase named in endpoint) (Homo sapiens, UniProt P51812); settings: read-out: % Ctrl, RSK2(Kin.Dom.1-N-terminal)
Experimental: as §1, §2, §3, §4, §5, §6

[14] = biological target: 97 kinases (kinase named in endpoint) (Homo sapiens, UniProt P53350); settings: read-out: % Ctrl, PLK1
Experimental: as §1, §2, §3, §4, §5, §6

[15] = biological target: 97 kinases (kinase named in endpoint) (Homo sapiens, UniProt P53779); settings: read-out: % Ctrl, JNK3
Experimental: as §1, §2, §3, §4, §5, §6

[16] = biological target: 97 kinases (kinase named in endpoint) (Homo sapiens, UniProt Q00536); settings: read-out: % Ctrl, PCTK1
Experimental: as §1, §2, §3, §4, §5, §6

[17] = biological target: 97 kinases (kinase named in endpoint) (Homo sapiens, UniProt Q02750); settings: read-out: % Ctrl, MEK1
Experimental: as §1, §2, §3, §4, §5, §6

[18] = biological target: 97 kinases (kinase named in endpoint) (Homo sapiens, UniProt Q06187); settings: read-out: % Ctrl, BTK
Experimental: as §1, §2, §3, §4, §5, §6

[19] = biological target: 97 kinases (kinase named in endpoint) (Homo sapiens, UniProt Q13153); settings: read-out: % Ctrl, PAK1
Experimental: as §1, §2, §3, §4, §5, §6

[20] = biological target: 97 kinases (kinase named in endpoint) (Homo sapiens, UniProt Q13873); settings: read-out: % Ctrl, BMPR2
Experimental: as §1, §2, §3, §4, §5, §6

[21] = biological target: 97 kinases (kinase named in endpoint) (Homo sapiens, UniProt Q15303); settings: read-out: % Ctrl, ERBB4
Experimental: as §1, §2, §3, §4, §5, §6

[22] = biological target: 97 kinases (kinase named in endpoint) (Homo sapiens, UniProt Q86V86); settings: read-out: % Ctrl, PIM3
Experimental: as §1, §2, §3, §4, §5, §6

[23] = biological target: 97 kinases (kinase named in endpoint) (Homo sapiens, UniProt Q9BUB5); settings: read-out: % Ctrl, MKNK1
Chain of 97 kinases (kinase named in endpoint) (Homo sapiens, UniProt Q9BUB5) (Q9BUB5 whole entry): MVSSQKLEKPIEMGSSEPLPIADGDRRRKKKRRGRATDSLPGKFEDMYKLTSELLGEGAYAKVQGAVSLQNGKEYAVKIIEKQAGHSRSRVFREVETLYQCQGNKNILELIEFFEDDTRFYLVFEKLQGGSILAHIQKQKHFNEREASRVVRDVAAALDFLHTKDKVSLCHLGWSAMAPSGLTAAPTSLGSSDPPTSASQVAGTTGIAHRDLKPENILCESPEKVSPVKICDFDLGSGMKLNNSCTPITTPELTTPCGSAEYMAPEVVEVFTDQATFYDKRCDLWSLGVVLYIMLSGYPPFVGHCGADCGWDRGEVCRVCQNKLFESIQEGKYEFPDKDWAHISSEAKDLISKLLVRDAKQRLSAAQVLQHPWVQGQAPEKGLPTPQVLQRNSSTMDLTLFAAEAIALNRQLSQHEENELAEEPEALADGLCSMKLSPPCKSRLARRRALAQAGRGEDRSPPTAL
Experimental: as §1, §2, §3, §4, §5, §6

[24] = biological target: 97 kinases (kinase named in endpoint) (Homo sapiens, UniProt Q9BXA7); settings: read-out: % Ctrl, TSSK1B
Experimental: as §1, §2, §3, §4, §5, §6

[25] = biological target: 97 kinases (kinase named in endpoint) (Homo sapiens, UniProt Q9H4B4); settings: read-out: % Ctrl, PLK3
Chain of 97 kinases (kinase named in endpoint) (Homo sapiens, UniProt Q9H4B4) (Q9H4B4 whole entry): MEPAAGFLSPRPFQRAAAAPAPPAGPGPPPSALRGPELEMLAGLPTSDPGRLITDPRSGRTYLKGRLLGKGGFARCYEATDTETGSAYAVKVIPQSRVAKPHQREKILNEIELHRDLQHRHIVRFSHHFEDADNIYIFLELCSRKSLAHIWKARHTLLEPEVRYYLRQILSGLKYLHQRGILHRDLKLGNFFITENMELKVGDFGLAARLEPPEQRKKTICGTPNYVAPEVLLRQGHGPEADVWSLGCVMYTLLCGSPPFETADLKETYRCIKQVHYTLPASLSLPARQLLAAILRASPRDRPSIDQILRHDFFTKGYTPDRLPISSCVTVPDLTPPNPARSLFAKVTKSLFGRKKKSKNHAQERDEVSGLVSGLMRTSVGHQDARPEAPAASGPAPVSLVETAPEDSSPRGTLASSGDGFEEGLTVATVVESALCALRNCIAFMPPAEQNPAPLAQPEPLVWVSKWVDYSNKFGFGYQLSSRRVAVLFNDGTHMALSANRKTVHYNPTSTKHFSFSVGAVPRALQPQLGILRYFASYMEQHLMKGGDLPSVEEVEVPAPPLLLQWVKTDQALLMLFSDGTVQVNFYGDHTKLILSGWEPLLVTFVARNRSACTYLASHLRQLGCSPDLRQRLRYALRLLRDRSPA
Experimental: as §1, §2, §3, §4, §5, §6

[26] = biological target: 97 kinases (kinase named in endpoint) (Homo sapiens, UniProt Q9HBH9); settings: read-out: % Ctrl, MKNK2
Experimental: as §1, §2, §3, §4, §5, §6

[27] = biological target: 97 kinases (kinase named in endpoint) (Homo sapiens, UniProt Q9P1W9); settings: read-out: % Ctrl, PIM2
Experimental: as §1, §2, §3, §4, §5, §6

[28] = biological target: 97 kinases (kinase named in endpoint) (Homo sapiens, UniProt Q9Y6R4); settings: read-out: % Ctrl, MAP3K4
Experimental: as §1, §2, §3, §4, §5, §6

SMILES | remaining binding at 1 µM [1] | remaining binding at 1 µM [2] | remaining binding at 1 µM [3] | remaining binding at 1 µM [4] | remaining binding at 1 µM [5] | remaining binding at 1 µM [6] | remaining binding at 1 µM [7] | remaining binding at 1 µM [8] | remaining binding at 1 µM [9] | remaining binding at 1 µM [10] | remaining binding at 1 µM [11] | remaining binding at 1 µM [12] | remaining binding at 1 µM [13] | remaining binding at 1 µM [14] | remaining binding at 1 µM [15] | remaining binding at 1 µM [16] | remaining binding at 1 µM [17] | remaining binding at 1 µM [18] | remaining binding at 1 µM [19] | remaining binding at 1 µM [20] | further results
CCCCCCCCCCCCCC(=O)N[C@@H](CC(N)=O)C(=O)N[C@@H](CC(C)C)C(=O)N[C@]1(C)CCCCCCC=CCCC[C@@](C)(C(=O)N[C@@H](CCC(=O)O)C(=O)N[C@@H](CC(C)C)C(=O)N[C@@H](CC(N)=O)C(N)=O)NC(=O)[C@H](CC(C)C)NC(=O)[C@H](CC(C)C)NC(=O)[C@H](CCCNC(=N)N)NC(=O)[C@H](CC(=O)O)NC(=O)[C@H](CC(C)C)NC(=O)[C@H](CCC(=O)O)NC1=O [compound 2012] | 100% | 86% | 81% | 55% | 100% | 100% | 100% | 74% | 100% | 100% | 100% | 100% | 100% | 89% | 100% | 100% | 94% | 100% | 100% | 100% | remaining binding at 1 µM [21]: 83%; remaining binding at 1 µM [22]: 100%; remaining binding at 1 µM [23]: 100%; remaining binding at 1 µM [24]: 98%; remaining binding at 1 µM [25]: 94%; remaining binding at 1 µM [26]: 100%; remaining binding at 1 µM [27]: 100%; remaining binding at 1 µM [28]: 90%
CNC(=O)c1ccc(Nc2ncc(C(F)(F)F)c(NCc3nccnc3N(C)S(C)(=O)=O)n2)cc1 [defactinib] | 100% | 47% | 86% | 65% | 61% | 15% | 82% | 3.6% | 37% | 52% | 100% | 90% | 9.9% | 17% | 90% | 48% | 83% | 100% | 65% | 25% | remaining binding at 1 µM [21]: 100%; remaining binding at 1 µM [22]: 40%; remaining binding at 1 µM [23]: 100%; remaining binding at 1 µM [24]: 82%; remaining binding at 1 µM [25]: 28%; remaining binding at 1 µM [26]: 100%; remaining binding at 1 µM [27]: 100%; remaining binding at 1 µM [28]: 69%
